Source: PubChem BioAssay (NCI)
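In this assay, cells in 96-well plates receive the compound at five concentrations for 48 hours. Endpoints are linearly interpolated between the surrounding concentrations. The concentration for full growth arrest is given as TGI.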

Columns and labels:
Assay in all cases: NCI tumour cell line growth inhibition, 48 h
[1] = system: 786-0 renal
[2] = system: A498 renal
[3] = system: A549 NSCLC
[4] = system: ACHN renal
[5] = system: CAKI-1 renal
[6] = system: CCRF-CEM leukemia
[7] = system: COLO 205 colon
[8] = system: DLD-1 colon
[9] = system: DMS 114 small cell lung
[10] = system: DMS 273 small cell lung
[11] = system: EKVX NSCLC
[12] = system: HCC-2998 colon
[13] = system: HL-60(TB) leukemia
[14] = system: HOP-62 NSCLC
[15] = system: HOP-92 NSCLC
[16] = system: HT29 colon
[17] = system: IGROV1 ovarian
[18] = system: K-562 leukemia
[19] = system: KM12 colon
[20] = system: KM20L2 colon
[21] = system: LOX IMVI melanoma
[22] = system: LXFL 529 NSCLC
[23] = system: M14 melanoma
[24] = system: M19-MEL melanoma
[25] = system: MALME-3M melanoma
[26] = system: MOLT-4 leukemia
[27] = system: NCI-H23 lung
[28] = system: NCI-H460 lung
[29] = system: NCI-H522 lung
[30] = system: OVCAR-3 ovarian
[31] = system: OVCAR-4 ovarian
[32] = system: OVCAR-5 ovarian
[33] = system: OVCAR-8 ovarian
[34] = system: RPMI-8226 leukemia
[35] = system: RXF 393 renal
[36] = system: SF-268 CNS
[37] = system: SF-295 CNS
[38] = system: SF-539 CNS
[39] = system: SK-MEL-2 melanoma
[40] = system: SK-MEL-28 melanoma
[41] = system: SK-MEL-5 melanoma
[42] = system: SK-OV-3 ovarian
[43] = system: SN12C renal
[44] = system: SNB-19 CNS
[45] = system: SNB-75 CNS
[46] = system: SNB-78 CNS
[47] = system: SW-620 colon
[48] = system: TK-10 renal
[49] = system: U251 CNS
[50] = system: UACC-257 melanoma
[51] = system: UACC-62 melanoma
[52] = system: UO-31 renal
[53] = system: XF 498 CNS

Measured: TGI

N#CC1CCCCCCCCCCC(=O)N(CCCl)C1=O (stereo not drawn)
> 100 µM: [1] | [2] | [3] | [4] | [5] | [6] | [7] | [8] | [9] | [10] | [11] | [12] | [13] | [14] | [15] | [16] | [17] | [18] | [19] | [20] | [21] | [22] | [23] | [24] | [25] | [26] | [27] | [28] | [29] | [30] | [31] | [32] | [33] | [34] | [35] | [36] | [37] | [38] | [39] | [40] | [41] | [42] | [43] | [44] | [45] | [46] | [47] | [48] | [49] | [50] | [51] | [52] | [53]
